Results as given in patent US5795857A, “Mimetic insect pyrokinin analogs for insect control” (The United States of America as represented by the …, priority 1996, dated 1998).
“Also recorded” adds a separate entry of the source.

Legend:
[1] = system: virgin females of Heliothis virescens; test: Pheromonotropic assay (topical application); type: in vivo; details: for dose approaching 100% maximal response, topical application: 15 minutes following topical application
Experimental: The amphiphilic carboranyl analog Cbe--Thr--Pro--Arg--Leu--NH2 was dissolved in water and solutions at concentrations of 5, 10, 25, 60, and 200 pmol/μl were prepared. The cuticular scales along the lateral side of the abdomen were removed with a 1 ml plastic pipet tip attached to house vacuum with a rubber hose. A low vacuum was applied to the apparatus and the pipet tip was gently passed over the cuticle until the scales were drawn by suction. After the scales were removed, 1 μl of peptide solution was applied to the surface of the cuticle and smoothed evenly over the prepared surface. […]
Pupae of Heliothis virescens were obtained from a laboratory colony maintained at the Insect Attractants Behavior and Basic Biology Research Laboratory, USDA-ARS, Gainesville, Fla. The pupae were separated by sex and the females were held in 4-1 cages. Cages were inspected daily for newly eclosed adults which were transferred to new cages and provided with cotton wicks soaked with a 5% sucrose solution. The insects were held at 25°[…] C. and 65%±3% relative humidity with a 12:12 (L:D) photoperiod. Virgin females were used for bioassays 2 and 3 days after eclosion during the 7th-8th hour of the photophase when little or no pheromone is present in the gland (Teal et al., 1993, Can. Entomol., 153:355-366). The cuticular scales were removed from the lateral side of the abdomen using a plastic pipet tip attached to house vacuum using a rubber hose. A low vacuum was applied and the pipet tip was passed gently over the cuticle until the scales were drawn off by suction. Insects were returned to the incubator for 24 h after the scales were removed for most experiments. However, insects were not given a recovery period in studies in which peptides were applied in DMSO (see below).
In initial studies we used dimethyl sulfoxide (DMSO) as a carrier to deliver Hez--PBAN or [6--Pha--Ala^0 ]Lom--MT--II for topical applications. […] We also assessed different carrier solvents for their ability to deliver these two peptides. Peptides were dissolved at a concentration of 500 pmol/μl in: DMSO, water, or 80% acetonitrile:20% water. Solutions were applied to the descaled abdomen in 1 μl of solvent as above. The insects were allowed to incubate for 1 h prior to excision and extraction of the pheromone gland. Extracts were analyzed for the amount of pheromone as above.
The use of water as a carrier for [6--Pha--Ala^0 ]Lom--MT--II was also assessed in dose response and temporal activity studies. For dose response studies [6--Pha--Ala^0 ]Lom--MT--II was dissolved in water at concentrations of 5, 10, 25, 50, 75, 100, 250, 500, 750 and 1000 pmol/μl. Insects were incubated for 60 min after application of 1 μl of solution to the descaled abdomen. In temporal activity studies a 100 pmol/μl dose was selected. For these experiments insects were incubated for periods of 15, 30, 60, 120, or 180 min after application of 1 μl of solution to the descaled abdomen. The ability of the parent peptide, Lom--MT--II, to stimulate pheromone production when applied topically in water was assessed by applying doses of 50, 100, 250 and 500 pmol to the abdomen. Control treatments for this experiment included insects treated with only water and females treated by topical application of 100 pmol of [6--Pha--Ala^0 ]Lom--MT--II. After incubation the sex pheromone glands were excised, extracted and analyzed for the amount of pheromone.

[2] = system: isolated cockroach (Leucophaea maderae) hindgut; test: Cockroach myotropic bioassay (isolated hindgut); type: cell-based
Experimental: Leucophaea maderae cockroaches were taken from stock colonies maintained at 27° C. and fed dry dog food ad lib. Cockroach hindguts, free of central nervous system (CNS) tissue, were dissected, immersed in saline, and prepared for recording of myogenic activity as previously described (Holman et al., 1991, ibid). Threshold concentrations were determined for each analogue by adding a known quantity of peptide (dissolved in 0.5 ml bioassay saline) to the bioassay chamber containing the hindgut and observing the response on a Gould 2200S oscillograph recorder. The quantity of the peptide analogues was calculated from the values obtained for Phe and/or Leu in the amino acid analysis. The threshold concentration was defined as the minimum concentration of peptide in the chamber required to evoke an observable change in the frequency (50%) or amplitude of contractions (5%) within 1 min and sustained for 3 min. Threshold concentrations were obtained from five cockroach hindguts on 5 consecutive days for each peptide. Quantitative data for dose-response plots were obtained as previously described (Holman et al., 1991, ibid).

[3] = isolated hindgut, FIG. 2, listed as carboranyl pseudotetrapeptide

Cbe--Thr--Pro--Arg--Leu--NH2
ED50 (EC50), pheromone production after topical application ([1]; 1 μl aqueous solution on lateral abdominal surface, FIG. 4): 25 pmoles/female
ED50, pheromone production via topical application ([1]; H. virescens, 1 μl aqueous solution): 25 pmol
time after topical application at which pheromone production is elicited ([1]; aqueous solution): about 15 minutes
dose approaching 100% maximal response, topical application ([1]; aqueous solution, listed as carboranyl analog): 60 pmoles/female
dose approaching 100% maximal response, topical application ([1]; aqueous solution, listed as carboranyl peptide): about 60 pmoles/female
Maximal Response via topical application (dose) ([1]; relative to 5 pmoles PBAN via injection): 60 pmol
concentration giving maximal pheromone stimulation, topical application ([1]; topically applied): 60 picomoles/insect
potency relative to the 8-mer LPK ([2]; hindgut threshold concentration): 10 X
reversibility of myostimulatory response by saline rinse ([2]; isolated hindgut, FIG. 2, listed as carboranyl analog): could not be reversed even following repeated saline rinses; also recorded: cannot be reversed even following repeated saline rinses
period over which myostimulatory activity subsides after rinse [2, 3]: about 20 minutes
reversibility of myostimulatory response by saline rinse [2, 3]: cannot be reversed by one or more saline rinses
Threshold Concentration, myostimulation of the isolated cockroach hindgut ([2]; minimum concentration evoking observable change in frequency (50%) or amplitude (5%) of contractions): 70 pM
